The target of one assay is T1, KRAS G12D/RAF1 (Homo sapiens, UniProt P01116, G12D).
T1 construct: KRAS (1-169) proteins were expressed in E. coli at 18° C; His6-MBP (N, cleaved yes); made in house; host or cells: E. coli
The assay can be described thus: Protein-protein interaction (PPI) HTRF assay KRAS G12D/RAF1. The assay is classed as binding. The following applies: KRAS G12D/RAF1, GppNHp-loaded KRAS; 30 minutes pre-incubation. On the procedure: Biotinylated KRAS wt and KRAS G12DNV proteins were expressed and purified in conditions similar to those previously reported (Tran, et al., 2021) (Zhang, et al., 2020). Briefly, KRAS (1-169) proteins were expressed in E. coli at 18° C. with an upstream TEV cleavage site (ENLFYQS) followed an Avi tag sequence ([…]). KIRAS expression constructs contained both a His6 and maltose-binding protein (MBP) tags at the N-terminus for Ni-NTA column purification prior to overnight TEV cleavage and MBP column purification. The avi-tagged NRAS expression construct contained both a His6 tag and SUMO cleavage sige at the N-terminus for Ni-NTA column purification followed by His-ULP1 digestion overnight. All avi-tagged RAS proteins were dialyzed into buffer containing ATP, biotin, and BirA followed by purification over a second Ni-NTA column and then run over a size exclusion HiLoad™ 26/600 Superdex™ column in 20 mM HEPES, pH 7.5, 300 mM NaCl, 5 mM MgCl2, and 1 mM TCEP. Fractions containing the protein of interest were pooled, concentrated, and confirmed by intact mass spectrometry. To prepare ‘GTP’ loaded KRAS and NRAS, biotinylated KRAS or NRAS was nucleotide exchanged from GDP-bound protein to GppNHp-bound (Jena Biosciences, NU-401-50) protein in the presence of alkaline phosphatase and excess GppNHp as previously described and the resulting nucleotide content was confirmed by HPLC reverse phase analytical chromatography (Donohue, et al., 2019) (Tran, et al., 2021).
His-tagged RAF1 (52-131) was similarly expressed in E. coli at 18° C. overnight with an upstream TEV cleavage site. His-tagged RAF1 expression construct contained both a His6 and MBP tags at the N-terminus for Ni-NTA column purification followed by MBP-tagged TEV digestion overnight. RAF1 protein samples were further purified over a MBP column followed by a Ni-NTA column and a second MBP column. The fractions containing the protein of interest were pooled, concentrated, and further purified over a HiLoad™ 16/600 Superdex™ 75 pg size exclusion column into 20 mM HEPES, pH8.0, 200 mM NaCl, 5 mM TCEP.
When RAS proteins are in the active GTP-bound conformation, they bind the effector protein RAF1 at the N-terminus Ras-binding domain (RBD, residues 52-131) (Tran, et al., 2021). Homogenous time resolved fluorescence (HTRF) was used to monitor the interaction between wt or mutant KRAS and RAF1 or wt NRAS and RAFT. Compounds were assayed in the presence of KRAS G12D/V and RAF1 versus wt KRAS to assess activity against mutant and w.t. KRAS. Similarly, compounds were then assayed in the presence of w.t. NRAS and RAF1 to assess RAS isoform selectivity. In all assay formats, His-tagged RAF1 protein was incubated with the HTRF donor, anti-6His Tb Cryptate gold (Cisbio 61DB10RDF), and biotinylated RAS proteins were incubated with the HTRF acceptor, streptavidin-d2 (CisBio 610SADLA). The intensity of the fluorescence signal emitted is proportional to binding between the two proteins. The donor solution was prepared by mixing 16 nM His-tagged RAF1 in protein dilution buffer with 1:100 anti-6His Tb cryptate in PPI-Terbium detection buffer. 16 nM biotinylated RAS protein was diluted into protein dilution buffer (50 mM Tris-HCl pH 7.5, 150 mM NaCl, 0.1 mM MgCl2, 1 mM TCEP, 0.005% Tween20) and mixed with 1:2000 Streptavidin-d2 diluted in PPI-Terbium detection buffer (CisBio 61DB10RDF). 50× compound in DMSO was mixed with 16 nM KRAS-acceptor solution and incubated for 30 minutes at room temperature. After compound pre-incubation with KRAS, the RAF1 donor solution was added to the KRAS-acceptor solution and incubated for 1 hour at room temperature. The fluorescence signal emitted was monitored at 665 nm and 615 nm using an Envision multimode plate reader. The HTRF ratio (665/615) was calculated and normalized to 0% inhibition in the absence of compound and 100% inhibition in the presence of untagged RAF1 protein. […]
Background: Time-resolved FRET reads energy transfer from a long-lived donor to a nearby acceptor.

Assay [1] addresses T2, GST-tagged KRAS G12D (2-169) (Homo sapiens, UniProt P01116, G12D).
T2 construct: GST-tagged KRAS^G12D (2-169, Reaction Biology, MSC-11-539); purchased Reaction Biology MSC-11-539 (KRAS G12D); MSC-11-502 (SOS1cat)
In words: Nucleotide exchange assay (NEA), HTRF of SOS-mediated GTP-DY-647P1 binding. The assay is classed as biochemical. The conditions noted are these: 5 nM GST-KRAS G12D, 20 nM SOScat, 150 nM GTP; compound 1 h at RT. The text has this: This activity is tightly regulated by GTPase activating proteins (GAPs) and guanine nucleotide exchange factors (GEFs). GEFs, such as SOS1/2, activate Ras proteins by exchanging GDP for GTP, thus returning Ras to its active conformation (Simanshu, Nissley, & McCormick, 2017). […] Homogenous time resolved fluorescence (HTRF) was used to detect SOS-mediated binding of a fluorescent GTP analog, GTP-DY-647P1 (Jena Biosciences NU-820-647P1) to GST-tagged KRAS^G12D (2-169, Reaction Biology, MSC-11-539).
GST-tagged KRAS^G12D (2-169) and anti-GST MAb Tb Cryptate Gold (CisBio 61GSTTLB) were diluted into assay buffer (20 mM HEPES, pH 7.3, 150 mM NaCl, 5 mM MgCl2, 0.05% BSA 0.0025% NP40, 1 mM DTT) to prepare a 2.5× donor solution. 5× compound was added to the protein mixture and incubated for 1 h at RT. 2.5× acceptor solution containing SOS1cat (564-1049, Reaction Biology MSC-11-502) and GTP-DY-647P1 were then added to the donor KRAS mixture such that the final concentration of the reaction contained 5 nM GST-tagged KRAS^G12D (2-169), 20 nM SOScat, and 150 nM GTP. The reaction was monitored using at RT with the Envision multimode plate reader (Ex/Em 337/665, […]) up to 90 minutes at 5 minute intervals. Data was blanked to reactions without SOS1 and % inhibition was calculated such that DMSO only=0% and blank=100%. Curve fitting was done using a 4 parameter fit. NEA KRAS G12D ID50 (uM) values of selected compounds are depicted in Table 2 with compounds having a value<0.01 uM as ++++; >0.01 uM to 0.1 uM as +++; >0.1 uM to 1 uM as ++; >1 uM to 20 uM as +; and >20 uM as NA.

This note sets out measurements from patent publication US11912723B2, “KRAS modulators and uses thereof” (Quanta Therapeutics, Inc., priority 2022, dated 2024).

SMILES strings stand for the structures.

T2 sequence (P01116 2-169 isoform P01116-2 G12D): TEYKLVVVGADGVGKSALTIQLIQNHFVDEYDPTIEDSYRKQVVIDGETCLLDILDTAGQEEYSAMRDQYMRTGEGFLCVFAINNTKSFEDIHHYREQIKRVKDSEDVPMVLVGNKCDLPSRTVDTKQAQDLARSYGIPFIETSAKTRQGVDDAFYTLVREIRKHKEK
T1 sequence (P01116 1-169 isoform P01116-2 G12D): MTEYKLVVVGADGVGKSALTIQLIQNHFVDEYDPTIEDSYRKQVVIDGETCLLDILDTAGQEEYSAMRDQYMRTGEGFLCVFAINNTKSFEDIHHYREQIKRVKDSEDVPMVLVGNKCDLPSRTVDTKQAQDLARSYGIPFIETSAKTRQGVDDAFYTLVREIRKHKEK

What is called IC50 is the concentration needed to halve the response being measured. A higher IC50 goes with weaker potency in that assay. As for `CN(C)C(=O)c1nn2c(c1C#N)CN(c1nc(OC[C@@]34CCCN3C[C@H](F)C4)nc3c1CN(C)[C@@]1(CCc4cccc(F)c41)C3)CCC2` [Compound 76, 3-cyano-5-[(7S)-7′-fluoro-2-[[(2R,8S)-2-fluoro-1,2,3,5,6,7-hexahydropyrrolizin-8-yl]methoxy]-6-methyl-spiro[5,8-dihydropyrido[4,3-d]pyrimidine-7,1′-indane]-4-yl]-N,N-dimethyl-4,6,7,8-tetrahydropyrazolo[1,5-a][1,4]diazepine-2-carboxamide], the values for the IC50 (against KRAS G12D/RAF1; in assay [1]) were 10 to 100 µM and less than 0.01 µM, respectively.
In the same order, the values of `O=C1NC(=O)C2(CCCN(c3nc(OC[C@@]45CCCN4C[C@H](F)C5)nc4c3COC3(CCc5ccc(O)cc53)C4)C2)N1` (mixture of isomers) [Compound 30, 9-[6′-hydroxy-2-[[rac-(2R,8S)-2-fluoro-1,2,3,5,6,7-hexahydropyrrolizin-8-yl]methoxy]spiro[5,8-dihydropyrano[4,3-d]pyrimidine-7,1′-indane]-4-yl]-1,3,9-triazaspiro[4.5]decane-2,4-dione] are more than 100 µM and 1 to 20 µM.
In the same order, the values of `CC(C)NC(=O)c1cc2n(n1)CCCN(c1nc(OC[C@@]34CCCN3C[C@H](F)C4)nc3c1CO[C@@]1(CCc4c(Cl)cccc41)C3)C2` [Compound 35, 5-[(7S)-4′-chloro-2-[[(2R,8S)-2-fluoro-1,2,3,5,6,7-hexahydropyrrolizin-8-yl]methoxy]spiro[5,8-dihydropyrano[4,3-d]pyrimidine-7,1′-indane]-4-yl]-N-isopropyl-4,6,7,8-tetrahydropyrazolo[1,5-a][1,4]diazepine-2-carboxamide] are more than 100 µM and 0.01 to 0.1 µM.
In the same order, the values of `CN1Cc2c(nc(OCC3(CN4CCOCC4)CC3)nc2N2C[C@H]3CC[C@@H](C2)N3)C[C@]12CCCc1ccccc12` [Compound 80, 4-[[1-[[(7S)-6-methyl-4-[(1R,5S)-3,8-diazabicyclo[3.2.1]octan-3-yl]spiro[5,8-dihydropyrido[4,3-d]pyrimidine-7,1′-tetralin]-2-yl]oxymethyl]cyclopropyl]methyl]morpholine] are 10 to 100 µM and 0.01 to 0.1 µM.
As to `O=C1NC(=O)[C@@H]2CN(c3nc(OC[C@@]45CCCN4C[C@H](F)C5)nc4c3CO[C@@]3(CCc5c(Cl)cccc53)C4)C[C@H]12` [Compound 33, (3aR,6aS)-5-[(7S)-4′-chloro-2-[[(2R,8S)-2-fluoro-1,2,3,5,6,7-hexahydropyrrolizin-8-yl]methoxy]spiro[5,8-dihydropyrano[4,3-d]pyrimidine-7,1′-indane]-4-yl]-3a,4,6,6a-tetrahydropyrrolo[3,4-c]pyrrole-1,3-dione], the IC50 lay in the range of 10 to 100 µM on KRAS G12D/RAF1 and 0.1 to 1 µM in assay [1].
Taken in the same sequence, the figures for `COc1cccc(-c2cc3n(n2)CCCN(c2nc(OC[C@@]45CCCN4C[C@H](F)C5)nc4c2CN(C)[C@@]2(CCCc5ccccc52)C4)C3)n1` [Compound 89, (7S)-2-[[(2R,8S)-2-fluoro-1,2,3,5,6,7-hexahydropyrrolizin-8-yl]methoxy]-4-[2-(6-methoxy-2-pyridyl)-4,6,7,8-tetrahydropyrazolo[1,5-a][1,4]diazepin-5-yl]-6-methyl-spiro[5,8-dihydropyrido[4,3-d]pyrimidine-7,1′-tetralin]] were more than 100 µM and 0.1 to 1 µM.
As for `Nc1ccc2c(c1)C1(CCC2)Cc2nc(OC[C@@]34CCCN3C[C@H](F)C4)nc(N3CCCC(O)CC3)c2CO1` (stereo partly drawn) [Compound 13, 1-[7′-amino-2-[[(2R,8S)-2-fluoro-1,2,3,5,6,7-hexahydropyrrolizin-8-yl]methoxy]spiro[5,8-dihydropyrano[4,3-d]pyrimidine-7,1′-tetralin]-4-yl]azepan-4-ol], the 50% inhibitory concentration (IC50) was 10 to 100 µM on KRAS G12D/RAF1 and 1 to 20 µM in assay [1].
